The assay addresses T1, human cathepsin S (CatS) (Homo sapiens, UniProt P25774).
T1 construct: made in house; host or cells: baculovirus system (insect cells)
The experiment in a line: Recombinant human cathepsin S (CatS) fluorogenic substrate inhibition assay. The assay is classed as biochemical. As to conditions: recombinant human CatS, 10 μM Z-Valine-Valine-Arginine-AMC, pH 5.0; average of results obtained; read-out: CatS IC50. The method, then:
Recombinant human cathepsin S (CatS) was expressed in the baculovirus system and purified in one step with a thiopropyl-sepharose column. […] The assay is run in 150 mM sodium acetate pH 5.0 containing 1.5 mM DTT and 150 mM NaCl. […] Measurements are taken every min for 20 min. The rate is calculated from the slope of the increase in fluorescence and the percent inhibition is calculated from this.

Among the data in patent publication US20080269241A1, “BICYCLIC AMINOPROPYL TETRAHYDRO-PYRAZOLO-PYRIDINE MODULATORS OF CATHEPSIN S” (priority 2007, published 2008) are IC50 values, retold here.

T1 sequence (P25774 115-331): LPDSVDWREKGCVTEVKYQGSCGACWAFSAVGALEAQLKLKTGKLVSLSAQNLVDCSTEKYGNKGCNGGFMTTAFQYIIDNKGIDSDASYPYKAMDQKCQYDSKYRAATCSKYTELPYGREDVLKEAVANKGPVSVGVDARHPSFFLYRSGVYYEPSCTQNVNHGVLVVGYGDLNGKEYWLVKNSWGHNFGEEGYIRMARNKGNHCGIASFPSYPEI

Take `CS(=O)(=O)N1CCc2c(c(-c3ccc(C(F)(F)F)c(CNC(=O)CN4CCCC4)c3)nn2CCCN2CCC(N3CCCC3=O)CC2)C1` [Example 183, N-[5-(5-Methanesulfonyl-1-{3-[4-(2-oxo-pyrrolidin-1-yl)-piperidin-1-yl]-propyl}-4,5,6,7-tetrahydro-1H-pyrazolo[4,3-c]pyridin-3-yl)-2-trifluoromethyl-benzyl]-2-pyrrolidin-1-yl-acetamide]: the IC50 (in general, the concentration that inhibits the measured activity by half) was 800 nM.

In the case of `CS(=O)(=O)N1CCc2c(c(-c3ccc(C(F)(F)F)c(CNC(=O)CN4CCC(O)C4)c3)nn2CCCN2CCC(N3CCCC3=O)CC2)C1` (stereo not drawn) [Example 184, 2-(3-Hydroxy-pyrrolidin-1-yl)-N-[5-(5-methanesulfonyl-1-{3-[4-(2-oxo-pyrrolidin-1-yl)-piperidin-1-yl]-propyl}-4,5,6,7-tetrahydro-1H-pyrazolo[4,3-c]pyridin-3-yl)-2-trifluoromethyl-benzyl]-acetamide], the IC50 was found to be 820 nM.

For `CS(=O)(=O)N1CCc2c(c(-c3ccc(C(F)(F)F)c(CNC(=O)CO)c3)nn2CCCN2CCC(N3CCCC3=O)CC2)C1` [Example 187, 2-Hydroxy-N-[5-(5-methanesulfonyl-1-{3-[4-(2-oxo-pyrrolidin-1-yl)-piperidin-1-yl]-propyl}-4,5,6,7-tetrahydro-1H-pyrazolo[4,3-c]pyridin-3-yl)-2-trifluoromethyl-benzyl]-acetamide], the IC50 was 1800 nM.

For the molecule `CS(=O)(=O)N1CCc2c(c(-c3ccc(C(F)(F)F)c(CNC(=O)Cn4cncn4)c3)nn2CCCN2CCC(N3CCCC3=O)CC2)C1` [Example 188, N-[5-(5-Methanesulfonyl-1-{3-[4-(2-oxo-pyrrolidin-1-yl)-piperidin-1-yl]-propyl}-4,5,6,7-tetrahydro-1H-pyrazolo[4,3-c]pyridin-3-yl)-2-trifluoromethyl-benzyl]-2-[1,2,4]triazol-1-yl-acetamide], the IC50 stood at 590 nM.

`CS(=O)(=O)N1CCc2c(c(-c3ccc(C(F)(F)F)c(CNC(=O)Cc4ccncc4)c3)nn2CCCN2CCC(N3CCCC3=O)CC2)C1` [Example 189, N-[5-(5-Methanesulfonyl-1-{3-[4-(2-oxo-pyrrolidin-1-yl)-piperidin-1-yl]-propyl}-4,5,6,7-tetrahydro-1H-pyrazolo[4,3-c]pyridin-3-yl)-2-trifluoromethyl-benzyl]-2-pyridin-4-yl-acetamide]: the IC50 was determined as 510 nM.

In the case of `Cn1ccnc1C(=O)NCc1cc(-c2nn(CC(O)CN3CCC(N4CCCC4=O)CC3)c3c2CN(S(C)(=O)=O)CC3)ccc1C(F)(F)F` (stereo not drawn) [Example 190, 1-Methyl-1H-imidazole-2-carboxylic acid 5-(1-{2-hydroxy-3-[4-(2-oxo-pyrrolidin-1-yl)-piperidin-1-yl]-propyl}-5-methanesulfonyl-4,5,6,7-tetrahydro-1H pyrazolo[4,3-c]pyridin-3-yl)-2-trifluoromethyl-benzylamide], the concentration for half-maximal inhibition (IC50) amounted to 1700 nM.

`Cc1ccc(C(=O)Nc2cc(-c3nn(CCCN4CCN(c5cccc(Cl)c5)CC4)c4c3CN(S(C)(=O)=O)CC4)ccc2Cl)cc1` [Example 198, N-[2-Chloro-5-(1-{3-[4-(3-chloro-phenyl)-piperazin-1-yl]-propyl}-5-methanesulfonyl-4,5,6,7-tetrahydro-1H-pyrazolo[4,3-c]pyridin-3-yl)-phenyl]-4-methyl-benzamide]: the IC50 turned out to be 410 nM.

For the molecule `CN(C)c1ccc(C(=O)Nc2cc(-c3nn(CCCN4CCN(c5cccc(Cl)c5)CC4)c4c3CN(S(C)(=O)=O)CC4)ccc2Cl)cc1` [Example 199, N-[2-Chloro-5-(1-{3-[4-(3-chloro-phenyl)-piperazin-1-yl]-propyl}-5-methanesulfonyl-4,5,6,7-tetrahydro-1H-pyrazolo[4,3-c]pyridin-3-yl)-phenyl]-4-dimethylamino-benzamide], the IC50 worked out at 470 nM.

In the case of `CS(=O)(=O)N1CCc2c(c(-c3ccc(Cl)c(NC(=O)c4ccc(Cl)cc4)c3)nn2CCCN2CCN(c3cccc(Cl)c3)CC2)C1` [Example 200, 4-Chloro-N-[2-chloro-5-(1-{3-[4-(3-chloro-phenyl)-piperazin-1-yl]-propyl}-5-methanesulfonyl-4,5,6,7-tetrahydro-1H-pyrazolo[4,3-c]pyridin-3-yl)-phenyl]-benzamide], the IC50 was determined as 600 nM.

For the molecule `CS(=O)(=O)N1CCc2c(c(-c3ccc(Cl)c(NC(=O)c4ccc(C#N)cc4)c3)nn2CCCN2CCN(c3cccc(Cl)c3)CC2)C1` [Example 201, N-[2-Chloro-5-(1-{3-[4-(3-chloro-phenyl)-piperazin-1-yl]-propyl}-5-methanesulfonyl-4,5,6,7-tetrahydro-1H-pyrazolo[4,3-c]pyridin-3-yl)-phenyl]-4-cyano-benzamide], the IC50 amounted to 580 nM.

In the case of `CS(=O)(=O)N1CCc2c(c(-c3ccc(Cl)c(NS(=O)(=O)Cc4ccccc4)c3)nn2CCCN2CCN(c3cccc(Cl)c3)CC2)C1` [Example 202, N-[2-Chloro-5-(1-{3-[4-(3-chloro-phenyl)-piperazin-1-yl]-propyl}-5-methanesulfonyl-4,5,6,7-tetrahydro-1H-pyrazolo[4,3-c]pyridin-3-yl)-phenyl]-C-phenyl-methanesulfonamide], the 50% inhibitory concentration (IC50) was 680 nM.

Regarding `CS(=O)(=O)N1CCc2c(c(-c3ccc(Cl)c(NS(=O)(=O)/C=C/c4ccccc4)c3)nn2CCCN2CCN(c3cccc(Cl)c3)CC2)C1` [Example 203, 2-Phenyl-ethenesulfonic acid [2-chloro-5-(1-{3-[4-(3-chloro-phenyl)-piperazin-1-yl]-propyl}-5-methanesulfonyl-4,5,6,7-tetrahydro-1H-pyrazolo[4,3-c]pyridin-3-yl)-phenyl]-amide], the half-inhibitory concentration (IC50) came out at 690 nM.

On to `CS(=O)(=O)N1CCc2c(c(-c3ccc(Cl)c(NS(=O)(=O)c4ccccc4)c3)nn2CCCN2CCN(c3cccc(Cl)c3)CC2)C1` [Example 204, N-[2-Chloro-5-(1-{3-[4-(3-chloro-phenyl)-piperazin-1-yl]-propyl}-5-methanesulfonyl-4,5,6,7-tetrahydro-1H-pyrazolo[4,3-c]pyridin-3-yl)-phenyl]-benzenesulfonamide], for which the IC50 was 700 nM.

`CN(C)Cc1cc(-c2nn(CCCN3CCC(N4CCCC4=O)CC3)c3c2CN(S(C)(=O)=O)CC3)ccc1C(F)(F)F` [Example 206, 1-(1-{3-[3-(3-Dimethylaminomethyl-4-trifluoromethyl-phenyl)-5-methanesulfonyl-4,5,6,7-tetrahydro-pyrazolo[4,3-c]pyridin-1-yl]-propyl}-piperidin-4-yl)-pyrrolidin-2-one]: the IC50 was 2520 nM.

Take `CS(=O)(=O)N1CCc2c(c(-c3ccc(Cl)c(CNc4ccccc4)c3)nn2CCCN2CCC(N3CCCC3=O)CC2)C1` [Example 207, 1-(1-{3-[3-(4-Chloro-3-phenylaminomethyl-phenyl)-5-methanesulfonyl-4,5,6,7-tetrahydro-pyrazolo[4,3-c]pyridin-1-yl]-propyl}-piperidin-4-yl)-pyrrolidin-2-one]: the IC50 was found to be 2250 nM.

In the case of `Cc1ccc(NCc2cc(-c3nn(CCCN4CCC(N5CCCC5=O)CC4)c4c3CN(S(C)(=O)=O)CC4)ccc2Cl)cc1` [Example 208, 1-[1-(3-{3-[4-Chloro-3-(p-tolylamino-methyl)-phenyl]-5-methanesulfonyl-4,5,6,7-tetrahydro-pyrazolo[4,3-c]pyridin-1-yl}-propyl)-piperidin-4-yl]-pyrrolidin-2-one], the half-maximal inhibitory concentration (IC50) was found to be 280 nM.

On to `COc1ccc(NCc2cc(-c3nn(CCCN4CCC(N5CCCC5=O)CC4)c4c3CN(S(C)(=O)=O)CC4)ccc2Cl)cc1` [Example 209, 1-{1-[3-(3-{4-Chloro-3-[(4-methoxy-phenylamino)-methyl]-phenyl}-5-methanesulfonyl-4,5,6,7-tetrahydro-pyrazolo[4,3-c]pyridin-1-yl)-propyl]-piperidin-4-yl}-pyrrolidin-2-one], for which the 50% inhibitory concentration (IC50) was 660 nM.

For the molecule `CS(=O)(=O)N1CCc2c(c(-c3ccc(Cl)c(CNc4cccc(-c5ccccc5)c4)c3)nn2CCCN2CCC(N3CCCC3=O)CC2)C1` [Example 210, 1-[1-(3-{3-[3-(Biphenyl-3-ylaminomethyl)-4-chloro-phenyl]-5-methanesulfonyl-4,5,6,7-tetrahydro-pyrazolo[4,3-c]pyridin-1-yl}-propyl)-piperidin-4-yl]-pyrrolidin-2-one], the IC50 was 630 nM.

As to `CC(C)c1cccc(NCc2cc(-c3nn(CCCN4CCC(N5CCCC5=O)CC4)c4c3CN(S(C)(=O)=O)CC4)ccc2Cl)c1` [Example 211, 1-{1-[3-(3-{4-Chloro-3-[(3-isopropyl-phenylamino)-methyl]-phenyl}-5-methanesulfonyl-4,5,6,7-tetrahydro-pyrazolo[4,3-c]pyridin-1-yl)-propyl]-piperidin-4-yl}-pyrrolidin-2-one], the IC50 came out at 370 nM.

With `CN(C)c1ccc2c(n1)n(C1CCN(CC(O)Cn3nc(-c4ccc(C(F)(F)F)c(CN)c4)c4c3CCN(S(C)(=O)=O)C4)CC1)c(=O)n2C` (stereo not drawn) [Example 216, 3-(1-{3-[3-(3-Aminomethyl-4-trifluoromethyl-phenyl)-5-methanesulfonyl-4,5,6,7-tetrahydro-pyrazolo[4,3-c]pyridin-1-yl]-2-hydroxy-propyl}-piperidin-4-yl)-5-dimethylamino-1-methyl-1,3-dihydro-imidazo[4,5-b]pyridin-2-one], the concentration for half-maximal inhibition (IC50) worked out at 600 nM.

For the molecule `CS(=O)(=O)c1csc(C(=O)NCc2cc(-c3nn(CC(O)CN4CCC(N5CCCC5=O)CC4)c4c3CN(S(C)(=O)=O)CC4)ccc2C(F)(F)F)c1Cl` (stereo not drawn) [Example 217, 3-Chloro-4-methanesulfonyl-thiophene-2-carboxylic acid 5-(1-{2-hydroxy-3-[4-(2-oxo-pyrrolidin-1-yl)-piperidin-1-yl]-propyl}-5-methanesulfonyl-4,5,6,7-tetrahydro-1H-pyrazolo[4,3-c]pyridin-3-yl)-2-trifluoromethyl-benzylamide], the IC50 came out at 600 nM.
